Experimental data reported in patent publication US11535643B2, “Macrolides with modified desosamine sugars and uses thereof” (President and Fellows of Harvard College, priority 2015, dated 2022).
In brackets after ≈: the same amount, converted by molar mass.

Tests used:
Type in all cases: cell-based
A. baumannii = assay: Broth dilution MIC determination (CLSI) against A. baumannii strains; settings: for MIC A. baumannii ATCC19606: ATCC19606, Strain No. MP-15
Excerpt: (§1) Minimum inhibitory concentrations (MICs) for macrolides described herein have been determined for unique strains of S. aureus, S. pneumoniae, S. pyogenes, E. faecalis, E. coli, A. baumannii, K. pneumoniae, P. aeruginosa, and H. influenzae, including several multidrug-resistant strains, with a special focus on macrolide resistant mechanisms. Azithromycin and solithromycin were included as control compounds. CLSI standard procedures for broth dilution MIC determination were used. Data for exemplary compounds described herein is shown in Tables M1-M7 and in Tables N1-N4.

P. aeruginosa = assay: Broth dilution MIC determination (CLSI) against P. aeruginosa strains; settings: for MIC P. aeruginosa ATCC27853: ATCC27853, Strain No. MP-3; for MIC P. aeruginosa PAO1: PAO1, Strain No. MP-7; for MIC P. aeruginosa PAO1:mex: Strain No. MP-8
Excerpt: as §1

S. aureus = assay: Broth dilution MIC determination (CLSI) against S. aureus strains; settings: for MIC S. aureus ATCC29213: ATCC29213, Strain No. MP-12; for MIC S. aureus ATCCBAA-977: ATCCBAA-977, Strain No. MP-17; for MIC S. aureus (MRSA) GISA USA600: GISA USA600, Strain No. MP-619 UNT-120; for MIC S. aureus (MRSA) ST-228 cErm: Strain No. MP-513; for MIC S. aureus (MRSA) USA100: USA100, Strain No. MP-618 UNT-096; for MIC S. aureus (MRSA) USA300: USA300, Strain No. MP-549; for MIC S. aureus (MRSA) ermA phenotype: Strain No. MP-620 UNT-146
Excerpt: as §1

S. pneumoniae = assay: Broth dilution MIC determination (CLSI) against S. pneumoniae strains; settings: for MIC S. pneumoniae ATCC49619: ATCC49619, Strain No. MP-21
Excerpt: as §1

K. pneumoniae = assay: Broth dilution MIC determination (CLSI) against K. pneumoniae strains; settings: for MIC K. pneumoniae ATCC10031: ATCC10031, Strain No. MP-14
Excerpt: as §1, with “used.” for “used. Data for exemplary compounds described herein is shown in Tables M1-M7 and in Tables N1-N4.”

E. faecalis = assay: Broth dilution MIC determination (CLSI) against E. faecalis strains; settings: for MIC E. faecalis ATCC29212: ATCC29212, Strain No. MP-24; for MIC E. faecalis van resistant: Strain No. UNT-039
Excerpt: as §1

E. coli = assay: Broth dilution MIC determination (CLSI) against E. coli strains; settings: for MIC E. coli ATCC25922: ATCC25922, Strain No. MP-4; for MIC E. coli ATCC25922:tolC: Strain No. MP-9; for MIC E. coli clinical: Strain No. MP541; for MIC E. coli clinical-cErm: Strain No. MP532
Excerpt: as §1

S. pyogenes = assay: Broth dilution MIC determination (CLSI) against S. pyogenes strains; settings: for MIC S. pyogenes ATCC19615: ATCC19615, Strain No. MP-19; for MIC S. pyogenes mac resistant: Strain No. MP-625 UNT-014
Excerpt: as §1

SMILES	MIC A. baumannii ATCC19606 (A. baumannii) [µg/mL]	MIC A. baumannii clinical (A. baumannii; Strain No. MP576) [µg/mL]	MIC A. baumannii clinical (A. baumannii; Strain No. MP577) [µg/mL]	MIC P. aeruginosa ATCC27853 (P. aeruginosa) [µg/mL]	MIC P. aeruginosa PAO1 (P. aeruginosa) [µg/mL]	MIC P. aeruginosa PAO1:mex (P. aeruginosa) [µg/mL]	MIC S. aureus ATCC29213 (S. aureus) [µg/mL]	MIC S. aureus ATCCBAA-977 (S. aureus) [µg/mL]	MIC S. aureus (MRSA) GISA USA600 (S. aureus) [µg/mL]	MIC S. aureus (MRSA) ST-228 cErm (S. aureus) [µg/mL]	MIC S. aureus (MRSA) USA100 (S. aureus) [µg/mL]	MIC S. aureus (MRSA) USA300 (S. aureus) [µg/mL]	MIC S. aureus (MRSA) ermA phenotype (S. aureus) [µg/mL]	MIC S. pneumoniae ATCC49619 (S. pneumoniae) [µg/mL]	MIC S. pneumoniae mefA (S. pneumoniae; Strain No. MP-626 UNT-038) [µg/mL]	MIC S. pneumoniae mefA (S. pneumoniae; Strain No. MP-627 UNT-039) [µg/mL]	MIC K. pneumoniae ATCC10031 (K. pneumoniae) [µg/mL]	MIC K. pneumoniae clinical (K. pneumoniae; Strain No. MP546) [µg/mL]	MIC K. pneumoniae clinical (K. pneumoniae; Strain No. MP548) [µg/mL]	MIC E. faecalis ATCC29212 (E. faecalis) [µg/mL]	other results
CCC1OC(=O)C(C)C(=O)C(C)C(OC2OC(C)CC(n3cccc3)C2O)C(C)(OC)CC(C)CNC(C)C2N(CCCCn3cc(-c4cccc(N)c4)nn3)C(=O)OC12C (stereo not drawn) [FSM-120362]	>64	>32	>32	>32	>32	>64	>64	>64	>32	>64	>64	>64	>32	8 (≈ 9.41 µM)	4 (≈ 4.71 µM)	8 (≈ 9.41 µM)	>64	>32	>32	64 (≈ 75.3 µM)	MIC E. faecalis van resistant (E. faecalis): >32 µg/mL; MIC E. coli ATCC25922 (E. coli): >32 µg/mL; MIC E. coli ATCC25922:tolC (E. coli): >64 µg/mL; MIC E. coli clinical (E. coli): >32 µg/mL; MIC E. coli clinical-cErm (E. coli): >32 µg/mL; MIC S. pyogenes ATCC19615 (S. pyogenes): 2 µg/mL (≈ 2.35 µM); MIC S. pyogenes mac resistant (S. pyogenes): 16 µg/mL (≈ 18.8 µM)
CCC1OC(=O)C(C)C(=O)C(C)C(OC2OC(C)CC(NCC#N)C2O)C(C)(OC)CC(C)CNC(C)C2N(CCCCn3cc(-c4cccc(N)c4)nn3)C(=O)OC12C (stereo not drawn) [FSM-120369]	>64	>64	>64	>64	>64	>64	32 (≈ 38.1 µM)	32 (≈ 38.1 µM)	>64	>64	>64	32 (≈ 38.1 µM)	>64	0.5 (≈ 0.596 µM)	0.25 (≈ 0.298 µM)	0.25 (≈ 0.298 µM)	16 (≈ 19.1 µM)	>64	>64	4 (≈ 4.77 µM)	MIC E. faecalis van resistant (E. faecalis): >64 µg/mL; MIC E. coli ATCC25922 (E. coli): >64 µg/mL; MIC E. coli ATCC25922:tolC (E. coli): >64 µg/mL; MIC E. coli clinical (E. coli): >64 µg/mL; MIC E. coli clinical-cErm (E. coli): >64 µg/mL; MIC S. pyogenes ATCC19615 (S. pyogenes): 0.5 µg/mL (≈ 0.596 µM); MIC S. pyogenes mac resistant (S. pyogenes): 2 µg/mL (≈ 2.38 µM)
CCC1OC(=O)C(C)C(=O)C(C)C(OC2OC(C)CC(N3CCOCC3)C2O)C(C)(OC)CC(C)CNC(C)C2N(CCCCn3cc(-c4cccc(N)c4)nn3)C(=O)OC12C (stereo not drawn) [FSM-120367]	>64	>64	>64	>64	>64	>64	>64	>64	>64	>64	>64	>64	>64	32 (≈ 36.8 µM)	16 (≈ 18.4 µM)	16 (≈ 18.4 µM)	>64	>64	>64	64 (≈ 73.6 µM)	MIC E. faecalis van resistant (E. faecalis): >64 µg/mL; MIC E. coli ATCC25922 (E. coli): >64 µg/mL; MIC E. coli ATCC25922:tolC (E. coli): >64 µg/mL; MIC E. coli clinical (E. coli): >64 µg/mL; MIC E. coli clinical-cErm (E. coli): >64 µg/mL; MIC S. pyogenes ATCC19615 (S. pyogenes): 8 µg/mL (≈ 9.19 µM); MIC S. pyogenes mac resistant (S. pyogenes): 64 µg/mL (≈ 73.6 µM)
